In patent US20200282019A1, “METHODS OF TREATING NEURODEGENERATIVE DISEASES” (priority 2017, published 2020):
“Also recorded” adds a separate entry of the source.

What was measured:
[1] = tested on: BACE1; assay: BACE1 expression after PACAP treatment; format: cell-based, APP-transgenic mice
Excerpt: PACAP38 is the full length active peptide.
(§1) As the amyloid accumulation in AD was contributed by amyloid precursor protein (APP) cleaved by overactive β-secretase (BACE1) and subsequently by γ-secretase, the desirable therapeutic goal is to inhibit BACE1 and/or γ-secretase, while enhancing α-secretase. The inventors used APP-transgenic mice pups to establish cortical neuronal culture with the method that the inventors previously published (Han et al 2014, Neurobiology of Aging). At 14 days, the inventors added PACAP and treated for 72 hours. Then the cells were harvest for BACE1, ADAMS, or other ELISA-based Assays.

[2] = tested on: phosphorylated Tau protein at the site of pThr231; assay: Aβ42-induced Tau phosphorylation at Thr231, Western blot in cultured primary neurons; format: cell-based
Description: The cells were harvested and homogenized for Western blot assay. The inventors used an antibody specific to phosphorylated Tau protein at the site of pThr231 (Pierce-antibody OPA1-03156).

[3] = tested on: cultured neurons; assay: Excitatory Postsynaptic Currents (EPSCs), Patch Clamp recording in cultured neurons; format: cell-based; settings: for average EPSCs: control 21±5 pA
Description: (§2) FIG. 12 depicts, in accordance with embodiments herein, the impact of PACAP's administration on synapses. […] Cultured neurons were treated with either nothing (top left), Aβ42 (top middle) or PACAP with Aβ42 (top right). Bottom panel: PACAP enhances synaptic transmissions (EPSCs frequency and amplitude) in cultured neuronal network.
(§3) Furthermore, PACAP increased the frequency and amplitude of Excitatory Postsynaptic Currents (EPSCs) in cultured neurons without Aβ in the media (FIG. 12 bottom panel). The average EPSCs was 21±5 pA in control (n=7 cells), which was increased to 31±3 pA (n=9 cells) if the cultured neurons were pretreated with PACAP (20 nM) for 72 hours before Patch Clamp recording (p<0.05, one way ANOVA with posthoc Tukey test). PACAP6-38, the truncated non-active version mixed with PACAP38 blocked the effect of PACAP, resulting in an average EPSCs of 24±3 pA (n=6).

[4] = tested on: primary cortical neuron cultures; assay: Aβ-induced toxicity, MTT cell survival in primary cortical neuron cultures; format: cell-based, mice; settings: for cell survival (MTT, control cells normalized to 100%): overnight
Description: The inventors applied three different doses of Aβ overnight to primary cortical neuron cultures obtained from neonatal mice and examined cell survival using the MTT chemiluminescent assay (FIG. 6). The MTT value of control cells (no Aβ added) was normalized to 100% and all other MTT values of cells incubated with Aβ were presented as a percentage of survival.

[5] = tested on: APP transgenic mice and wild-type littermates; assay: Novel Objects Recognition (NOR) test after intranasal PACAP; format: in vivo; settings: PACAP-treated WT mice
Description: (§4) The inventors gave intranasal PACAP treatment to a group of APP transgenic mice and their wild-type littermates. Starting from the age of 6 months, these groups of mice were given bilateral nostril injection of PACAP (0.1 μg/μl, 3 μl per nostril) three times per week for eight continuous weeks. The injection procedure was described by Nonako et al 2012. At the age of 9 months, the inventors sacrificed the mice and examined amyloid plaques in the hippocampal regions using thioflavin-S staining and photographed under fluorescent microscope. These thioflavin-S positive dense core plaques are associated with deleterious effects whereas thioflavin-S negative diffusive amyloid plaques are non-detrimental and often associated with cognitive normal elderly individuals (Serrano-Pozo et al., 2011).
Next, the inventors performed the Novel Objects Recognition (NOR) test. Briefly, the mice were acclimatized to a square chamber, then two identical objects were placed in the chamber on the second day. On the third day, one of the objects was replaced with a novel object. It is a natural behavior to take more time to explore the new object. The discriminating capacity on the new object vs the old object was calculated as discrimination index (DI) as follows:
In APP mice, DI change was −110% (n=4), indicating deterioration on cognitive function from 6-9 month (without PACAP treatment). […]

[6] = tested on: cultured neurons; assay: Neurite integrity / Aβ-induced synaptic degeneration in cultured neurons; format: cell-based; settings: PACAP with Aβ42
Description: as §2, §3

[7] = tested on: APP transgenic mice; assay: Thioflavin-S dense core amyloid plaques in hippocampal region after intranasal PACAP; format: in vivo
Description: FIG. 13 depicts, in accordance with embodiments herein, the impact of PACAP's administration on plaques in APP transgenic mice in that PACAP reduces dense core amyloid plaque size. A: a typical amyloid plaque in the hippocampal region of an untreated APP transgenic mouse at 9 month age. Bar=20 μM. B: an amyloid plaque in the hippocampal region from an APP transgenic mouse (9 month) after intranasal PACAP treatment. Bar=20 μM.
as §4

[8] = tested on: phosphorylated Tau protein at the site of 422; assay: Aβ42-induced Tau phosphorylation at site 422, In-Cell Western in cultured primary neurons; format: cell-based
Description: The cells were fixed in 96 wells plate for In-Cell Western assay. The inventors used an antibody specific to phosphorylated Tau protein at the site of 422 and Tau5 antibody for total Tau quantification. pTau/total Tau ratio was calculated and compared. […] Okadaic acid (OA) is a potent phosphatase inhibitor to test maximal pTau capacity.
Because Tau hyperphosphorylation is contingent upon Aβ, this in vitro model best epitomizes AD pathogenesis and can differentiate AD from other tauopathy (FTLD, PDD, etc). […] Meanwhile, PACAP38 (lane 4) reduced Aβ-induced Tau phosphorylation and the phosphorylated Tau to actin ratio was 0.5. […] In addition to the phosphorylation site at Thr231 of Tau, the inventors tested pTau 422 using an in-cell Western approach on cultured cells (FIG. 11). PACAP (50 nM) reduces pTau422 by 40%.

[9] = tested on: BACE1; assay: BACE1 FRET activity assay (Michaelis-Menten) on PACAP-treated cortical neuronal culture; format: cell-based, APP-transgenic mice; settings: PACAP treatment
Description: FIG. 7 depicts, in accordance with embodiments herein, that PACAP inhibits BACE1 activity. Left panel: BACE1 activity kinetic was measured and fitted with Michaelis-Menten Model. […] Right panel: steady state endpoint fluorescent units (RFU). Note PACAP reduces the end product by BACE1.
as §1
The inventors measured BACE1 activity using a BACE1 FRET assay kit (Panvera, Life technologies) with a customized protocol. The artificial substrate of BACE1 is a short peptide with a rhodamine-derived fluorescent donor coupled to a quenching acceptor (Rh-[…]-Quencher). Upon cleavage by BACE1, the rhodamine donor is released from quencher and emitted fluorescence detected under a wavelength of Ex/Em=545/585 nm. […]

[10] = tested on: hTau transgenic mice; assay: Morris Water Maze in hTau transgenic mice after intranasal PACAP; format: in vivo; settings: hTau mice at 10 months, intranasal PACAP 0.1 μg/μl, 3 μl per nostril, 3 times a week, 8 weeks
Description: The inventors gave intranasal PACAP treatment for a group of hTau transgenic mice and their WT littermates. Starting from the age of 6 months, these groups of mice were given bilateral nostril injection of PACAP (0.1 μg/μl, 3 μl per nostril) 3 times a week for a continuous 8 weeks. Human Tau mice are appropriate model to test Tau phosphorylation and its pathological consequence. In this strain (B6.Cg-Mapttml(EGFP)Klt Tg(MAPT)8cPdav/J, Jackson lab), the intrinsic mice tau was disrupted by inserting eGFP sequence to the first exon of mice tau, but all 6 isoforms of human Tau (both 3R and 4R) were knocked in. The hTau mice show age dependent accumulation of hyperphosphorylated and aggregated tau in cortex and hippocampus, neuronal loss, and cognitive decline. The inventors tested the mice in Morris Water Maze, which is a behavior test approach to examine the spatial recognition and memory function of mice. […] Taken together, PACAP nasal injection decreases AD pathology and improves cognitive performance in two animal models of AD.

[11] = tested on: APP transgenic mice; assay: Morris Water Maze (MWM) in APP mice after intranasal PACAP; format: in vivo; settings: APP mice at 10 months
Description: (A) APP mice were either treated with intranasal PACAP (n=4) or treated with intranasal saline (n=4). (B) WT mice were either treated with intranasal PACAP (n=3) or saline (n=3).
as §4
In APP mice, DI change was −110% (n=4), indicating deterioration on cognitive function from 6-9 month (without PACAP treatment). PACAP treatment slows the declining rate as the DI change was −40% in PACAP-treated APP mice group (n=4). Furthermore, the inventors tested the mice in the Morris Water Maze (MWM), which is a behavior test used to examine the spatial recognition and memory function of mice. […]

## PACAP6-38 [reference compound]
[1]; PACAP6-38 with PACAP
  effect of PAC1 receptor blocker on BACE1 reduction by PACAP: antagonized the BACE1 reduction effect of PACAP
[2]; PACAP6-38 (2 μM) with PACAP38 (50 nM) and Aβ42, lane 3
  effect on PACAP reduction of pTau231: offsetting the effect of PACAP
[3]; PAC1 receptor antagonist with PACAP
  effect on PACAP enhancement of synaptic transmissions: blocks the enhancement
[3]; PACAP6-38 mixed with PACAP38
  average EPSCs: 24±3 pA

## Pituitary Adenylate Cyclase Activating Polypeptide [PACAP]
[4]; Aβ42 1 μM, cultured mouse cortical neurons
  PACAP concentration that effectively protects against Aβ42 toxicity: ≥ 50 nM
[4]; PACAP 50 nM added at the same time as 1 μM Aβ
  cell survival (MTT, control cells normalized to 100%): 79±5%
[4]; PACAP 100 nM added at the same time as 1 μM Aβ
  cell survival (MTT, control cells normalized to 100%): 87±4%
[5]
  discrimination index (DI) change: positively changed
[1]; PACAP38 full length peptide
  BACE1 expression: reduces BACE1 expression
[6]
  neurite integrity / Aβ-induced synaptic degeneration: protects Aβ-induced synaptic degeneration; also recorded: protects Aβ induced synaptic degeneration; also recorded: protects neurite integrity
[2]; PACAP38 (50 nM) added 24 hours after Aβ42 (0.5 μM), 48 hours, lane 4, non-treated 0.25
  phosphorylated Tau (pTau231) to actin ratio: 0.5
[7]; intranasal PACAP 0.1 μg/μl, 3 μl per nostril, three times per week, eight weeks from 6 months, examined at 9 months
  dense core amyloid plaque size (average core diameter): smaller size; also recorded: significantly reduced
[7]; intranasal PACAP, APP transgenic mice, 9 month
  number of amyloid plaques: did not significant change
[8]; PACAP 50 nM, Aβ42 (0.25 μM) treated cells
  reduction of pTau422: 40%
[8]; PACAP by itself, without Aβ42
  pTau/total Tau ratio: did not change Tau phosphorylation
[8]; low dose PACAP 10 nM, Aβ42 treated cells
  reduction of pTau422: marginal effect
[9]
  steady state endpoint fluorescent units (RFU), end product by BACE1: reduces
[10]
  MWM performance: prevented the deterioration
[11]
  MWM performance: prevents the deterioration
[3]; cultured neurons without Aβ in the media
  frequency and amplitude of EPSCs: increased; also recorded: enhances
[3]; pretreated with PACAP (20 nM) 72 hours, no Aβ
  average EPSCs: 31±3 pA
